Measured values from US20260015337A1 (Trawsfynydd Therapeutics, Inc., priority 2022, published 2026).

Biological target: 3CL Protease (Severe acute respiratory syndrome coronavirus 2, UniProt P0DTD1)
Experiment: 3CL Protease enzymatic activity assay (BPS Bioscience Assay Kit #78043-1, fluorescence)
Type: biochemical, SARS-CoV-2
Conditions: Table A; 30 min preincubation, 40 μM substrate, 4 hours at room temperature; read-out: IC50, nM (3CL Protease enzymatic activity)
Outline: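 SARS-CoV-2 3CL protease was preincubated with compound 30 min at room temperature in assay buffer with 1 mM DTT (≤1% DMSO), then 40 μM substrate added for 4 h at room temperature. Fluorescence at 360/460 nm, blank-subtracted; IC50 from % inhibition, with GC376 as inhibitor control.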

Compound	IC50 [nM]
Cc1ccc2[nH]c(=O)c(CC(C#N)NC(=O)[C@H](Cc3cc(F)c(F)cc3F)NC(=O)[C@@H](NS(=O)(=O)CC(F)(F)F)C(C)(C)C)cc2c1 (stereo partly drawn) [Compound 166, (2S)—N-((2S)-1-((1-Cyano-2-(6-methyl-2-oxo-1,2-dihydroquinolin-3-yl)ethyl)amino)-1-oxo-3-(2,4,5-trifluorophenyl)propan-2-yl)-3,3-dimethyl-2-((2,2,2-trifluoroethyl)sulfonamido)butanamide]	500 to 1000
CC(C)(C)[C@H](NC(=O)C(F)(F)F)C(=O)N1C[C@H]2C([C@H]1C(=O)NC(C#N)Cc1cc3c([nH]c1=O)CCC(F)(F)C3)C2(C)C (stereo in doubt) [Compound 125, (1R,2S,5S)—N-(1-Cyano-2-(6,6-difluoro-2-oxo-1,2,5,6,7,8-hexahydroquinolin-3-yl)ethyl)-3-((S)-3,3-dimethyl-2-(2,2,2-trifluoroacetamido)butanoyl)-6,6-dimethyl-3-azabicyclo[3.1.0]hexane-2-carboxamide]	250 to 500
Cc1ccc2[nH]c(=O)c(C[C@H](C#N)NC(=O)[C@@H]3[C@H]4[C@H](CN3C(=O)[C@@H](NC(=O)C(F)(F)F)C(C)(C)C)C4(C)C)cc2c1 [Compound 114, (1S,2S,5S)—N-[(1R)-1-cyano-2-(6-methyl-2-oxo-1H-quinolin-3-yl)ethyl]-3-[(2S)-3,3-dimethyl-2-[(2,2,2-trifluoroacetyl)amino]butanoyl]-6,6-dimethyl-3-azabicyclo[3.1.0]hexane-2-carboxamide]	≥ 1000
Cc1ccc2[nH]c(=O)c(CC(C#N)NC(=O)[C@@H]3C4[C@H](CN3C(=O)[C@@H](Nc3nccc(C(F)(F)F)n3)C(C)(C)C)C4(C)C)cc2c1 (stereo in doubt) [Compound 156, (1R,2S,5S)—N-(1-Cyano-2-(6-methyl-2-oxo-1,2-dihydroquinolin-3-yl)ethyl)-3-((S)-3,3-dimethyl-2-((4-(trifluoromethyl)pyrimidin-2-yl)amino)butanoyl)-6,6-dimethyl-3-azabicyclo[3.1.0]hexane-2-carboxamide]	≥ 1000
Cc1ccc2[nH]c(=O)c(C[C@H](C#N)NC(=O)[C@@H]3C4[C@H](CN3C(=O)[C@@H](NS(C)(=O)=O)C(C)(C)C)C4(C)C)cc2c1 (stereo in doubt) [Compound 148, (1R,2S,5S)—N-[(1R)-1-cyano-2-(6-methyl-2-oxo-1H-quinolin-3-yl)ethyl]-3-[(2S)-2-(methanesulfonamido)-3,3-dimethyl-butanoyl]-6,6-dimethyl-3-azabicyclo[3.1.0]hexane-2-carboxamide]	≥ 1000
Cc1ccc2[nH]c(=O)c(C[C@@H](C#N)NC(=O)[C@@H]3[C@@H]4[C@H](CN3C(=O)Cc3cc(C)no3)C4(C)C)cc2c1 [Compound 192, (1R,2S,5S)—N—((S)-1-Cyano-2-(6-methyl-2-oxo-1,2-dihydroquinolin-3-yl)ethyl)-6,6-dimethyl-3-(2-(3-methylisoxazol-5-yl)acetyl)-3-azabicyclo[3.1.0]hexane-2-carboxamide]	≥ 1000
Cc1ccc2[nH]c(=O)c(C[C@@H](C#N)NC(=O)[C@@H]3[C@@H]4[C@H](CN3C(=O)[C@@H](NS(=O)(=O)CC(F)(F)F)C(C)(C)C)C4(C)C)cc2c1 [Compound 195, (1R,2S,5S)—N—((S)-1-Cyano-2-(6-methyl-2-oxo-1,2-dihydroquinolin-3-yl)ethyl)-3-((S)-3,3-dimethyl-2-((2,2,2-trifluoroethyl)sulfonamido)butanoyl)-6,6-dimethyl-3-azabicyclo[3.1.0]hexane-2-carboxamide]	< 50
Cc1ccc2[nH]c(=O)c(C[C@@H](C#N)NC(=O)[C@@H]3C4[C@H](CN3C(=O)[C@@H](Nc3nccc(C)n3)C(C)(C)C)C4(C)C)cc2c1 (stereo in doubt) [Compound 160, (1R,2S,5S)—N—((S)-1-Cyano-2-(6-methyl-2-oxo-1,2-dihydroquinolin-3-yl)ethyl)-3-((S)-3,3-dimethyl-2-((4-methylpyrimidin-2-yl)amino)butanoyl)-6,6-dimethyl-3-azabicyclo[3.1.0]hexane-2-carboxamide]	≥ 1000
Cc1cc2cc(CC(C#N)NC(=O)[C@@H]3C4[C@H](CN3C(=O)[C@@H](NC(=O)C(F)(F)F)C(C)(C)C)C4(C)C)c(=O)[nH]c2cc1C (stereo in doubt) [Compound 145, (1R,2S,5S)—N-(1-cyano-2-(6,7-dimethyl-2-oxo-1,2-dihydroquinolin-3-yl)ethyl)-3-((S)-3,3-dimethyl-2-(2,2,2-trifluoroacetamido)butanoyl)-6,6-dimethyl-3-azabicyclo[3.1.0]hexane-2-carboxamide]	50 to 100
Cc1ccc2[nH]c(=O)c(C[C@H](C#N)NC(=O)C3C4C(CN3C(=O)[C@H](NC(=O)C(C)C)C(C)(C)C)C4(C)C)cc2c1 (stereo in doubt) [Compound 204, (1S)—N-[(1R)-1-cyano-2-(6-methyl-2-oxo-1H-quinolin-3-yl)ethyl]-3-[(2R)-3,3-dimethyl-2-(2-methylpropanoylamino)butanoyl]-6,6-dimethyl-3-azabicyclo[3.1.0]hexane-2-carboxamide]	50 to 100
Cc1cc2cc(C[C@@H](C#N)NC(=O)[C@@H]3[C@@H]4[C@H](CN3C(=O)[C@@H](NC(=O)C(F)(F)F)C(C)(C)C)C4(C)C)c(=O)[nH]c2cc1F [Compound 176, (1R,2S,5S)—N—((S)-1-Cyano-2-(7-fluoro-6-methyl-2-oxo-1,2-dihydroquinolin-3-yl)ethyl)-3-((S)-3,3-dimethyl-2-(2,2,2-trifluoroacetamido)butanoyl)-6,6-dimethyl-3-azabicyclo[3.1.0]hexane-2-carboxamide]	50 to 100
Cc1ccc2[nH]c(=O)c(CC(C#N)NC(=O)[C@@H]3C4[C@H](CN3C(=O)[C@@H](NS(C)(=O)=O)C(C)(C)C)C4(C)C)cc2c1 (stereo in doubt) [Compound 102, (1R,2S,5S)—N-(1-Cyano-2-(6-methyl-2-oxo-1,2-dihydroquinolin-3-yl)ethyl)-3-((S)-3,3-dimethyl-2-(methylsulfonamido)butanoyl)-6,6-dimethyl-3-azabicyclo[3.1.0]hexane-2-carboxamide]	< 50
CC(C)(C)[C@H](NS(C)(=O)=O)C(=O)N1C[C@H]2C([C@H]1C(=O)NC(C#N)Cc1cc3c([nH]c1=O)CCCC3)C2(C)C (stereo in doubt) [Compound 122, (1R,2S,5S)—N-(1-Cyano-2-(2-oxo-1,2,5,6,7,8-hexahydroquinolin-3-yl)ethyl)-3-((S)-3,3-dimethyl-2-(methylsulfonamido)butanoyl)-6,6-dimethyl-3-azabicyclo[3.1.0]hexane-2-carboxamide]	100 to 250
CC(C)(C)[C@H](NS(C)(=O)=O)C(=O)N1C[C@H]2[C@@H]([C@H]1C(=O)N[C@H](C#N)Cc1cc3cnccc3[nH]c1=O)C2(C)C [Compound 188, (1R,2S,5S)—N—((S)-1-Cyano-2-(2-oxo-1,2-dihydro-1,6-naphthyridin-3-yl)ethyl)-3-((S)-3,3-dimethyl-2-(methylsulfonamido)butanoyl)-6,6-dimethyl-3-azabicyclo[3.1.0]hexane-2-carboxamide]	< 50
CC(C)(C)[C@H](NC(=O)C(F)(F)F)C(=O)N1C[C@H]2[C@@H]([C@H]1C(=O)N[C@H](C#N)Cc1cc3cnccc3[nH]c1=O)C2(C)C [Compound 174, (1R,2S,5S)—N—((S)-1-Cyano-2-(2-oxo-1,2-dihydro-1,6-naphthyridin-3-yl)ethyl)-3-((S)-3,3-dimethyl-2-(2,2,2-trifluoroacetamido)butanoyl)-6,6-dimethyl-3-azabicyclo[3.1.0]hexane-2-carboxamide]	< 50
CC(C)(C)[C@H](NC(=O)C(F)(F)F)C(=O)N1C[C@H]2C([C@H]1C(=O)NC(C#N)Cc1cc3ccc(F)cc3[nH]c1=O)C2(C)C (stereo in doubt) [Compound 106, (1R,2S,5S)—N-(1-Cyano-2-(7-fluoro-2-oxo-1,2-dihydroquinolin-3-yl)ethyl)-3-((S)-3,3-dimethyl-2-(2,2,2-trifluoroacetamido)butanoyl)-6,6-dimethyl-3-azabicyclo[3.1.0]hexane-2-carboxamide]	100 to 250
Cc1ccc2[nH]c(=O)c(C[C@@H](C#N)NC(=O)C3C[C@H]4OCC[C@H]4N3C(=O)[C@@H](NC(=O)OCc3ccccc3)C(C)(C)C)cc2c1 (stereo partly drawn) [Compound 197, Benzyl ((2S)-1-((3aR,6aR)-5-(((S)-1-cyano-2-(6-methyl-2-oxo-1,2-dihydroquinolin-3-yl)ethyl)carbamoyl)hexahydro-4H-furo[3,2-b]pyrrol-4-yl)-3,3-dimethyl-1-oxobutan-2-yl)carbamate]	≥ 1000
COC(=O)N[C@@H](C(=O)N1CC2C(C1C(=O)N[C@@H](C#N)Cc1cc3cc(C)ccc3[nH]c1=O)C2(C)C)C(C)(C)C (stereo in doubt) [Compound 200, Methyl N-[(1R)-1-[(1S)-2-[[(1R)-1-cyano-2-(6-methyl-2-oxo-1H-quinolin-3-yl)ethyl]carbamoyl]-6,6-dimethyl-3-azabicyclo[3.1.0]hexane-3-carbonyl]-2,2-dimethyl-propyl]carbamate]	< 50
